From ChEMBL document CHEMBL4725331, “An investigative study of antitumor properties of a novel thiazolo[4,5-d]pyrimidine small molecule revealing superior antitumor activity with CDK1 selectivity and potent pro-apoptotic properties” (Bioorg Med Chem, 2020)

Key:
[1] = tested on: SF-268; test: Antiproliferative activity against human SF-268 cells assessed as inhibition of cell growth at 10 uM measured after 48 hrs by SRB assay relative to control; format: functional
[2] = target: Cyclin-dependent kinase 1/cyclin B1 (Homo sapiens, UniProt P06493); test: Inhibition of CDK1/cyclinB (unknown origin); format: protein-complex assay
Sequence of Cyclin-dependent kinase 1/cyclin B1 (P06493 whole entry): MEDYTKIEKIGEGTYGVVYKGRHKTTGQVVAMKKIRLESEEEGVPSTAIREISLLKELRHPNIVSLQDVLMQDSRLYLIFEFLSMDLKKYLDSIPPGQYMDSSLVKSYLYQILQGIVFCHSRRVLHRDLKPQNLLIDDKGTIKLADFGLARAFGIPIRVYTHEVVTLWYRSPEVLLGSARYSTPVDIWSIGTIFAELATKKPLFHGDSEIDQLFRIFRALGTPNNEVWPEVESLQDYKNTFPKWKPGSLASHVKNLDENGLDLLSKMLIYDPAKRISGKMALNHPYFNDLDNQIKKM
Sequence of Cyclin-dependent kinase 1/cyclin B1 (P14635 whole entry, further chain): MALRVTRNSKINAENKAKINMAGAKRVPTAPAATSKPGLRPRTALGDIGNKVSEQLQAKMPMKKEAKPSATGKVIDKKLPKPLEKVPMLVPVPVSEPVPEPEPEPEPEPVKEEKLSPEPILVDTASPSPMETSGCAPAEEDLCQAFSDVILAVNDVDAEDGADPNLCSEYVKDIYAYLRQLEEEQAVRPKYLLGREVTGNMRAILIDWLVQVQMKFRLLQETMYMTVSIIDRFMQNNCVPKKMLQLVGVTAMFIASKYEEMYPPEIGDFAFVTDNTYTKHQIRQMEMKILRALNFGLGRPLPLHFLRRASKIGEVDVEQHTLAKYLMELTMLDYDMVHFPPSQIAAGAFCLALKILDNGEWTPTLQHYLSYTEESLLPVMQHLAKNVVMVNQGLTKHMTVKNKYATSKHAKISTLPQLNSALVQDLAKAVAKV

[3] = tested on: NCI-H460; test: Antiproliferative activity against human NCI-H460 cells assessed as inhibition of cell growth at 10 uM measured after 48 hrs by SRB assay relative to control; format: functional
[4] = tested on: HCT-116; test: Induction of apoptosis in human HCT-116 cells assessed as early apoptotic cells at IC50 incubated for 48 hrs by annexin-V FITC and propidium iodide staining based flow cytometry analysis (reference value: 1.67 %); format: functional
[5] = tested on: NCI/ADR-RES; test: Antiproliferative activity against human NCI/ADR-RES cells assessed as inhibition of cell growth measured after 48 hrs by SRB assay; format: functional
[6] = tested on: HOP-92; test: Antiproliferative activity against human HOP-92 cells assessed as inhibition of cell growth at 10 uM measured after 48 hrs by SRB assay relative to control; format: functional
[7] = tested on: RPMI-8226; test: Antiproliferative activity against human RPMI-8226 cells assessed as inhibition of cell growth measured after 48 hrs by SRB assay; format: functional
[8] = tested on: HOP-92; test: Antiproliferative activity against human HOP-92 cells assessed as inhibition of cell growth measured after 48 hrs by SRB assay; format: functional
[9] = tested on: SK-OV-3; test: Antiproliferative activity against human SK-OV-3 cells assessed as inhibition of cell growth measured after 48 hrs by SRB assay; format: functional
[10] = tested on: SK-OV-3; test: Antiproliferative activity against human SK-OV-3 cells assessed as inhibition of cell growth at 10 uM measured after 48 hrs by SRB assay relative to control; format: functional
[11] = tested on: M14; test: Antiproliferative activity against human M14 cells assessed as inhibition of cell growth measured after 48 hrs by SRB assay; format: functional
[12] = tested on: HCT-116; test: Induction of apoptosis in human HCT116 cells assessed as up regulation of caspase-9 expression by RT-PCR analysis relative to untreated control; format: functional
[13] = tested on: UACC-62; test: Antiproliferative activity against human UACC-62 cells assessed as inhibition of cell growth measured after 48 hrs by SRB assay; format: functional
[14] = tested on: TK-10; test: Antiproliferative activity against human TK-10 cells assessed as inhibition of cell growth at 10 uM measured after 48 hrs by SRB assay relative to control; format: functional
[15] = tested on: MCF7; test: Antiproliferative activity against human MCF7 cells assessed as inhibition of cell growth at 10 uM measured after 48 hrs by SRB assay relative to control; format: functional
[16] = tested on: HCT-116; test: Induction of apoptosis in human HCT116 cells assessed as up regulation of caspase-8 expression by RT-PCR analysis relative to untreated control; format: functional
[17] = tested on: COLO 205; test: Antiproliferative activity against human COLO 205 cells assessed as inhibition of cell growth measured after 48 hrs by SRB assay; format: functional
[18] = tested on: WI-38; test: Cell cycle arrest in human WI-38 cells assessed as accumulation in G2/M phase phase at IC50 concentration incubated for 48 hrs by propidium iodide staining based flow cytometry analysis (reference value: 7.16 %); conditions: wi-38, 48 h
[19] = tested on: IGROV-1; test: Antiproliferative activity against human IGROV-1 cells assessed as inhibition of cell growth measured after 48 hrs by SRB assay; format: functional
[20] = tested on: PC-3; test: Antiproliferative activity against human PC-3 cells assessed as inhibition of cell growth measured after 48 hrs by SRB assay; format: functional
[21] = tested on: U-251; test: Antiproliferative activity against human U-251 cells assessed as inhibition of cell growth measured after 48 hrs by SRB assay; format: functional
[22] = tested on: WI-38; test: Induction of apoptosis in human WI-38 cells assessed as early apoptotic cells at IC50 incubated for 48 hrs by annexin-V FITC and propidium iodide staining based flow cytometry analysis (reference value: 0.39 %); format: cell-based; conditions: wi-38, 48 h
[23] = tested on: CCRF-CEM; test: Antiproliferative activity against human CCRF-CEM cells assessed as inhibition of cell growth measured after 48 hrs by SRB assay; format: functional
[24] = tested on: EKVX; test: Antiproliferative activity against human EKVX cells assessed as inhibition of cell growth at 10 uM measured after 48 hrs by SRB assay relative to control; format: functional
[25] = tested on: K562; test: Antiproliferative activity against human K562 cells assessed as inhibition of cell growth measured after 48 hrs by SRB assay; format: functional
[26] = tested on: Hs-578T; test: Antiproliferative activity against human Hs-578T cells assessed as inhibition of cell growth at 10 uM measured after 48 hrs by SRB assay relative to control; format: functional
[27] = tested on: MOLT-4; test: Antiproliferative activity against human MOLT-4 cells assessed as inhibition of cell growth measured after 48 hrs by SRB assay; format: functional
[28] = tested on: KM12; test: Antiproliferative activity against human KM12 cells assessed as inhibition of cell growth at 10 uM measured after 48 hrs by SRB assay relative to control; format: functional
[29] = tested on: HCT-116; test: Cell cycle arrest in human HCT-116 cells assessed as accumulation in S phase phase at IC50 concentration incubated for 48 hrs by propidium iodide staining based flow cytometry analysis (reference value: 41.34 %); format: functional
[30] = tested on: SNB-75; test: Antiproliferative activity against human SNB-75 cells assessed as inhibition of cell growth measured after 48 hrs by SRB assay; format: functional
[31] = tested on: SNB-19; test: Antiproliferative activity against human SNB-19 cells assessed as inhibition of cell growth measured after 48 hrs by SRB assay; format: functional
[32] = tested on: SNB-19; test: Antiproliferative activity against human SNB-19 cells assessed as inhibition of cell growth at 10 uM measured after 48 hrs by SRB assay relative to control; format: functional
[33] = tested on: OVCAR-8; test: Antiproliferative activity against human OVCAR-8 cells assessed as inhibition of cell growth measured after 48 hrs by SRB assay; format: functional
[34] = tested on: MDA-MB-435; test: Antiproliferative activity against human MDA-MB-435 cells assessed as inhibition of cell growth measured after 48 hrs by SRB assay; format: functional
[35] = read-out: LC50 (the source's name)

Q: With COc1ccc(-n2c(=S)sc3c(Cl)nc(C)nc32)c(OC)c1 as the molecule, how does the inhibition at 10 µM [1] read?
A: The inhibition at 10 µM was over 50%.

Q: What about the IC50 [2] of the same molecule?
A: Its IC50 is 0.097 µM.

Q: What about the inhibition at 10 µM [3] of the same molecule?
A: Its inhibition at 10 µM is over 50%.

Q: What about the Activity [4] of the same molecule?
A: The Activity was 5.38%.

Q: And the GI50 [5]?
A: Its GI50 is 13.2 µM.

Q: And the TGI [5]?
A: The TGI was 72.4 µM.

Q: And the CC50 [5, 35]?
A: Its CC50 is over 100 µM.

Q: And the inhibition at 10 µM [6]?
A: The inhibition at 10 µM was over 50%.

Q: And the GI50 [7]?
A: The GI50 was 3.47 µM.

Q: And the TGI [7]?
A: The TGI was 14.1 µM.

Q: And the CC50 [7, 35]?
A: The CC50 was over 100 µM.

Q: What about the GI50 [8] of the same molecule?
A: The GI50 was 2.04 µM.

Q: And the TGI [8]?
A: The TGI was 8.51 µM.

Q: What about the CC50 [8, 35] of the same molecule?
A: Its CC50 is 31.6 µM.

Q: What about the GI50 [9] of the same molecule?
A: Its GI50 is 14.1 µM.

Q: What about the TGI [9] of the same molecule?
A: Its TGI is 27.5 µM.

Q: What about the CC50 [9, 35] of the same molecule?
A: The CC50 was 52.5 µM.

Q: What about the inhibition at 10 µM [10] of the same molecule?
A: Its inhibition at 10 µM is over 50%.

Q: And the GI50 [11]?
A: Its GI50 is 1.86 µM.

Q: What about the TGI [11] of the same molecule?
A: Its TGI is 4.07 µM.

Q: What about the CC50 [11, 35] of the same molecule?
A: The CC50 was 8.91 µM.

Q: What about the “fold change (FC)” value [12] of the same molecule?
A: The value was 15.9.

Q: And the GI50 [13]?
A: Its GI50 is 2.04 µM.

Q: What about the TGI [13] of the same molecule?
A: Its TGI is 4.68 µM.

Q: And the CC50 [13, 35]?
A: The CC50 was 12 µM.

Q: What about the inhibition at 10 µM [14] of the same molecule?
A: The inhibition at 10 µM was over 50%.

Q: What about the inhibition at 10 µM [15] of the same molecule?
A: The inhibition at 10 µM was over 50%.

Q: What about the “fold change (FC)” value [16] of the same molecule?
A: The value was 7.9.

Q: And the GI50 [17]?
A: The GI50 was 3.8 µM.

Q: What about the TGI [17] of the same molecule?
A: The TGI was 13.2 µM.

Q: And the CC50 [17, 35]?
A: Its CC50 is 47.9 µM.

Q: And the Activity [18]?
A: Its Activity is 12.27%.

Q: What about the GI50 [19] of the same molecule?
A: The GI50 was 1.95 µM.

Q: And the TGI [19]?
A: The TGI was 3.98 µM.

Q: What about the CC50 [19, 35] of the same molecule?
A: The CC50 was 8.32 µM.

Q: What about the GI50 [20] of the same molecule?
A: The GI50 was 2.4 µM.

Q: And the TGI [20]?
A: Its TGI is 5.89 µM.

Q: And the CC50 [20, 35]?
A: The CC50 was 22.9 µM.

Q: What about the GI50 [21] of the same molecule?
A: The GI50 was 1.91 µM.

Q: And the TGI [21]?
A: Its TGI is 3.63 µM.

Q: What about the CC50 [21, 35] of the same molecule?
A: Its CC50 is 6.92 µM.

Q: What about the Activity [22] of the same molecule?
A: The Activity was 3.59%.

Q: What about the GI50 [23] of the same molecule?
A: Its GI50 is 2.69 µM.

Q: What about the TGI [23] of the same molecule?
A: Its TGI is 7.41 µM.

Q: What about the CC50 [23, 35] of the same molecule?
A: The CC50 was over 100 µM.

Q: What about the inhibition at 10 µM [24] of the same molecule?
A: The inhibition at 10 µM was over 50%.

Q: What about the GI50 [25] of the same molecule?
A: Its GI50 is 1.2 µM.

Q: What about the TGI [25] of the same molecule?
A: The TGI was 3.8 µM.

Q: And the CC50 [25, 35]?
A: Its CC50 is over 100 µM.

Q: What about the inhibition at 10 µM [26] of the same molecule?
A: Its inhibition at 10 µM is over 50%.

Q: And the GI50 [27]?
A: The GI50 was 2.14 µM.

Q: What about the TGI [27] of the same molecule?
A: The TGI was 5.5 µM.

Q: What about the CC50 [27, 35] of the same molecule?
A: The CC50 was over 100 µM.

Q: And the inhibition at 10 µM [28]?
A: The inhibition at 10 µM was over 50%.

Q: And the Activity [29]?
A: Its Activity is 30.1%.

Q: What about the GI50 [30] of the same molecule?
A: Its GI50 is 1.95 µM.

Q: And the TGI [30]?
A: Its TGI is 4.27 µM.

Q: And the CC50 [30, 35]?
A: The CC50 was 9.33 µM.

Q: What about the GI50 [31] of the same molecule?
A: The GI50 was 2.4 µM.

Q: And the TGI [31]?
A: The TGI was 5.37 µM.

Q: And the CC50 [31, 35]?
A: The CC50 was 17 µM.

Q: And the inhibition at 10 µM [32]?
A: The inhibition at 10 µM was over 50%.

Q: What about the GI50 [33] of the same molecule?
A: The GI50 was 2.69 µM.

Q: And the TGI [33]?
A: Its TGI is 7.41 µM.

Q: And the CC50 [33, 35]?
A: Its CC50 is 40.7 µM.

Q: And the GI50 [34]?
A: The GI50 was 2.14 µM.

Q: And the TGI [34]?
A: The TGI was 3.89 µM.

Q: What about the CC50 [34, 35] of the same molecule?
A: Its CC50 is 7.24 µM.
